Assays:
Assay in all cases: NCI 60 growth inhibition
Type in all cases: cell-based, human
786-0 = conditions: 786-0, Renal Cancer
Protocol: (§1) The above triazole derivatives of melampomagnolide B were evaluated for growth inhibitory properties against an NCI panel of 60 human cancer cell lines derived from nine human cancer cell types, grouped into disease sub-panels that represent leukemia, lung, colon, central nervous system (CNS), melanoma, renal, ovary, breast, and prostate cancer cells. Growth inhibitory (GI50) effects were measured as a function of the variation of optical density as a percentage of control.

A549/ATCC = conditions: Non-Small Cell Lung Cancer
Protocol: as §1

ACHN = conditions: Renal Cancer
Protocol: as §1

CCRF-CEM = conditions: Leukemia
Protocol: as §1

COLO 205 = conditions: COLO 205, Colon Cancer
Protocol: as §1

DU-145 = conditions: DU-145, Prostate Cancer
Protocol: as §1

EKVX = conditions: Non-Small Cell Lung Cancer
Protocol: as §1

HCC-2998 = conditions: HCC-2998, Colon Cancer
Protocol: as §1

HCT-15 = conditions: HCT-15, Colon Cancer
Protocol: as §1

HOP-62 = conditions: HOP-62, Non-Small Cell Lung Cancer
Protocol: as §1

HS 578T = conditions: Breast Cancer
Protocol: as §1

LOX IMVI = conditions: Melanoma
Protocol: as §1

M14 = conditions: M14, Melanoma
Protocol: as §1

MALME-3M = conditions: Melanoma
Protocol: as §1

MCF7 = conditions: MCF7, Breast Cancer
Protocol: as §1

MDA-MB-435 = conditions: MDA-MB-435, Melanoma
Protocol: as §1

MDA-MB-468 = conditions: MDA-MB-468, Breast Cancer
Protocol: as §1

MOLT-4 = conditions: MOLT-4, Leukemia
Protocol: as §1

NCI-H226 = conditions: NCI-H226, Non-Small Cell Lung Cancer
Protocol: as §1

NCI-H23 = conditions: NCI-H23, Non-Small Cell Lung Cancer
Protocol: as §1

NCI-H322M = conditions: Non-Small Cell Lung Cancer
Protocol: as §1

NCI-H460 = conditions: NCI-H460, Non-Small Cell Lung Cancer
Protocol: as §1

NCI-H522 = conditions: NCI-H522, Non-Small Cell Lung Cancer
Protocol: as §1

NCI/ADR-RES = conditions: Ovarian Cancer
Protocol: as §1

OVCAR-4 = conditions: OVCAR-4, Ovarian Cancer
Protocol: as §1

OVCAR-5 = conditions: OVCAR-5, Ovarian Cancer
Protocol: as §1

OVCAR-8 = conditions: OVCAR-8, Ovarian Cancer
Protocol: as §1

PC-3 = conditions: PC-3, Prostate Cancer
Protocol: as §1

RPMI-8226 = conditions: RPMI-8226, Leukemia
Protocol: as §1

SF-268 = conditions: SF-268, CNS Cancer
Protocol: as §1

SF-295 = conditions: SF-295, CNS Cancer
Protocol: as §1

SF-539 = conditions: SF-539, CNS Cancer
Protocol: as §1

SK-MEL-2 = conditions: SK-MEL-2, Melanoma
Protocol: as §1

SK-MEL-5 = conditions: SK-MEL-5, Melanoma
Protocol: as §1

SW-620 = conditions: SW-620, Colon Cancer
Protocol: as §1

TK-10 = conditions: TK-10, Renal Cancer
Protocol: as §1

U251 = conditions: U251, CNS Cancer
Protocol: as §1

UO-31 = conditions: UO-31, Renal Cancer
Protocol: as §1

C=C1C(=O)O[C@H]2[C@H]1CC/C(Cn1cc(CCC)nn1)=C\CC[C@@]1(C)O[C@@H]21 [JVM 4-16, (1aR,7aS,10aS,10bS,E)-1a-Methyl-8-methylene-5((4-propyl-1H-1,2,3-triazol-1-yl)methyl)-2,3,6,7,7a,8,10a,10b-octahydrooxireno[2′,3′:9,10]cyclodeca[1,2-b]furan-9(1aH)-one]
GI50 (786-0; Homo sapiens, Table 2): 11.3 µM
GI50 (A549/ATCC; Homo sapiens, Table 2): 22.3 µM
GI50 (ACHN; Homo sapiens, Table 2): 3.81 µM
GI50 (CCRF-CEM; Homo sapiens, Table 2): 3 µM
GI50 (COLO 205; Homo sapiens, Table 2): 5.22 µM
GI50 (DU-145; Homo sapiens, Table 2): 4.32 µM
GI50 (EKVX; Homo sapiens, Table 2): 11.5 µM
GI50 (HCC-2998; Homo sapiens, Table 2): 15.1 µM
GI50 (HCT-15; Homo sapiens, Table 2): 2.9 µM
GI50 (HOP-62; Homo sapiens, Table 2): 14.1 µM
GI50 (HS 578T; Homo sapiens, Table 2): 23.4 µM
GI50 (LOX IMVI; Homo sapiens, Table 2): 3.91 µM
GI50 (M14; Homo sapiens, Table 2): 3.99 µM
GI50 (MALME-3M; Homo sapiens, Table 2): 4.7 µM
GI50 (MCF7; Homo sapiens, Table 2): 3.35 µM
GI50 (MDA-MB-435; Homo sapiens, Table 2): 10.4 µM
GI50 (MDA-MB-468; Homo sapiens, Table 2): 3.65 µM
GI50 (MOLT-4; Homo sapiens, Table 2): 5.54 µM
GI50 (NCI-H226; Homo sapiens, Table 2): 12.6 µM
GI50 (NCI-H23; Homo sapiens, Table 2): 13.6 µM
GI50 (NCI-H322M; Homo sapiens, Table 2): 21.5 µM
GI50 (NCI-H460; Homo sapiens, Table 2): 21.2 µM
GI50 (NCI-H522; Homo sapiens, Table 2): 3.06 µM
GI50 (NCI/ADR-RES; Homo sapiens, Table 2): 15.2 µM
GI50 (OVCAR-4; Homo sapiens, Table 2): 9.46 µM
GI50 (OVCAR-5; Homo sapiens, Table 2): 14.1 µM
GI50 (OVCAR-8; Homo sapiens, Table 2): 13.5 µM
GI50 (PC-3; Homo sapiens, Table 2): 14.9 µM
GI50 (RPMI-8226; Homo sapiens, Table 2): 5.52 µM
GI50 (SF-268; Homo sapiens, Table 2): 13.7 µM
GI50 (SF-295; Homo sapiens, Table 2): 18.5 µM
GI50 (SF-539; Homo sapiens, Table 2): 8.87 µM
GI50 (SK-MEL-2; Homo sapiens, Table 2): 16.3 µM
GI50 (SK-MEL-5; Homo sapiens, Table 2): 15.3 µM
GI50 (SW-620; Homo sapiens, Table 2): 4.23 µM
GI50 (TK-10; Homo sapiens, Table 2): 3.86 µM
GI50 (U251; Homo sapiens, U-251, Table 2): 14.1 µM
GI50 (UO-31; Homo sapiens, Table 2): 11.1 µM

C=C1C(=O)O[C@H]2[C@H]1CC/C(Cn1cc(-c3ccsc3)nn1)=C\CC[C@@]1(C)O[C@@H]21 [JVM 4-53]
GI50 (786-0; Table 3): 1.76 µM
GI50 (A549/ATCC; Table 3): 8.61 µM
GI50 (ACHN; Table 3): 1.32 µM
GI50 (CCRF-CEM; Table 3): 1.63 µM
GI50 (COLO 205; Table 3): 1.45 µM
GI50 (DU-145; Table 3): 1.43 µM
GI50 (EKVX; Table 3): 2.33 µM
GI50 (HCC-2998; Table 3): 1.84 µM
GI50 (HCT-15; Table 3): 1.11 µM
GI50 (HOP-62; Table 3): 4.9 µM
GI50 (HS 578T; Table 3): 2.82 µM
GI50 (LOX IMVI; Table 3): 1.28 µM
GI50 (M14; Table 3): 1.93 µM
GI50 (MALME-3M; Table 3): 1.61 µM
GI50 (MCF7; Table 3): 1.68 µM
GI50 (MDA-MB-435; Table 3): 1.85 µM
GI50 (MDA-MB-468; Table 3): 1.28 µM
GI50 (MOLT-4; Table 3): 2.59 µM
GI50 (NCI-H226; Table 3): 2.09 µM
GI50 (NCI-H23; Table 3): 1.82 µM
GI50 (NCI-H322M; Table 3): 10.5 µM
GI50 (NCI-H460; Table 3): 4.71 µM
GI50 (NCI-H522; Table 3): 1.39 µM
GI50 (NCI/ADR-RES; Table 3): 3.79 µM
GI50 (OVCAR-4; Table 3): 2.48 µM
GI50 (OVCAR-5; Table 3): 2.29 µM
GI50 (OVCAR-8; Table 3): 2.96 µM
GI50 (PC-3; Table 3): 4.21 µM
GI50 (RPMI-8226; Table 3): 2.45 µM
GI50 (SF-268; Table 3): 2.53 µM
GI50 (SF-295; Table 3): 9.61 µM
GI50 (SF-539; Table 3): 1.8 µM
GI50 (SK-MEL-2; Table 3): 2.27 µM
GI50 (SK-MEL-5; Table 3): 1.83 µM
GI50 (SW-620; Table 3): 1.32 µM
GI50 (TK-10; Table 3): 1.52 µM
GI50 (U251; Table 3): 2.5 µM
GI50 (UO-31; Table 3): 1.35 µM

C=C1C(=O)O[C@H]2[C@H]1CC/C(Cn1cc(-c3ccc(N)cc3)nn1)=C\CC[C@@]1(C)O[C@@H]21 [JVM 4-58]
GI50 (786-0; Table 3): 1.98 µM
GI50 (A549/ATCC; Table 3): 11.9 µM
GI50 (ACHN; Table 3): 2.65 µM
GI50 (CCRF-CEM; Table 3): 2 µM
GI50 (COLO 205; Table 3): 1.79 µM
GI50 (DU-145; Table 3): 3.65 µM
GI50 (EKVX; Table 3): 3.89 µM
GI50 (HCC-2998; Table 3): 3.49 µM
GI50 (HCT-15; Table 3): 1.42 µM
GI50 (HOP-62; Table 3): 10.2 µM
GI50 (HS 578T; Table 3): 4.46 µM
GI50 (LOX IMVI; Table 3): 1.51 µM
GI50 (M14; Table 3): 2.97 µM
GI50 (MALME-3M; Table 3): 2.18 µM
GI50 (MCF7; Table 3): 2.41 µM
GI50 (MDA-MB-435; Table 3): 3.01 µM
GI50 (MDA-MB-468; Table 3): 1.77 µM
GI50 (MOLT-4; Table 3): 2.87 µM
GI50 (NCI-H226; Table 3): 3.34 µM
GI50 (NCI-H23; Table 3): 2.49 µM
GI50 (NCI-H322M; Table 3): 12.6 µM
GI50 (NCI-H460; Table 3): 10.4 µM
GI50 (NCI-H522; Table 3): 1.37 µM
GI50 (NCI/ADR-RES; Table 3): 14.5 µM
GI50 (OVCAR-4; Table 3): 4.9 µM
GI50 (OVCAR-5; Table 3): 6.43 µM
GI50 (OVCAR-8; Table 3): 3.04 µM
GI50 (PC-3; Table 3): 10.1 µM
GI50 (RPMI-8226; Table 3): 2.75 µM
GI50 (SF-268; Table 3): 3.7 µM
GI50 (SF-295; Table 3): 12.1 µM
GI50 (SF-539; Table 3): 2.77 µM
GI50 (SK-MEL-2; Table 3): 10.6 µM
GI50 (SK-MEL-5; Table 3): 3.47 µM
GI50 (SW-620; Table 3): 2.16 µM
GI50 (TK-10; Table 3): 2.25 µM
GI50 (U251; Table 3): 4.16 µM
GI50 (UO-31; Table 3): 1.87 µM
